Results from paper PMC4756062 (Clinical Pharmacokinetics, 2015).
“Also recorded” adds a separate entry of the source. Read-outs that look alike come from different tables or passages of the source.

What was measured:
[1] = type: in vivo, human (breast cancer patients); conditions: for AUC(0-t): AUC0–24, plasma; for C trough: concentration before dosing; for C trough / C trough, ratio of weak to potent CYP2D6-inhibiting SSRI: 10 patients
[2] = Adverse effects recorded during the antidepressant switch study; type: in vivo, human (breast cancer patients)
[3] = after versus before the switch, median (range)
[4] = female, human, plasma, tamoxifen + potent CYP2D6-inhibiting SSRI (paroxetine or fluoxetine), median (range), dose corrected to 20 mg tamoxifen
[5] = female, human, plasma, C max, plasma, tamoxifen + potent CYP2D6-inhibiting SSRI (paroxetine or fluoxetine), median (range), dose corrected to 20 mg tamoxifen
[6] = plasma, tamoxifen + potent CYP2D6-inhibiting SSRI (paroxetine or fluoxetine), median (range)
[7] = plasma, after versus before the switch, median (range)
[8] = plasma, switch from paroxetine/fluoxetine to escitalopram
[9] = tamoxifen + potent CYP2D6-inhibiting SSRI (paroxetine or fluoxetine), median (range)
[10] = plasma, tamoxifen + potent CYP2D6-inhibiting SSRI (paroxetine or fluoxetine), median (range), dose corrected to 20 mg tamoxifen

In the case of `CC/C(=C(\c1ccc(O)cc1)c1ccc(OCCN(C)C)cc1)c1ccccc1` [4-OH-Tam, 4-hydroxytamoxifen], the “AUC0–24 ratio 4-OH-Tam to tamoxifen, ratio of weak to potent CYP2D6-inhibiting SSRI” value [1, 3] is reported as 1.51 (1.08–1.67), the “AUC0–24 ratio 4-OH-Tam to tamoxifen, ratio of weak to potent CYP2D6-inhibiting SSRI” value ([1]; after versus before the switch, median (range), listed as 4-hydroxytamoxifen) is reported as ~ 1.5 and the AUC(0-t) [1, 4] is reported as 0.0638 µM·h. For the same compound, the Cmax [1, 5] was 3.46 nM, the C trough [1, 6] was 2.47 (1.29–4.65) nM and the “AUC0–24, ratio of weak to potent CYP2D6-inhibiting SSRI” value [1, 7] was 1.34 (0.88–1.87). The “C max, ratio of weak to potent CYP2D6-inhibiting SSRI” value [1, 7] was 1.42 (0.81–2.05), the “C trough, ratio of weak to potent CYP2D6-inhibiting SSRI” value [1, 7] was 1.40 (0.82–2.06) and the “Increase in AUC0–24 after the switch” value [1, 8] was 34%. For the same compound, the “Increase in Cmax after the switch” value [1, 8] was 42%, the “Increase in Ctrough after the switch” value [1, 8] was 40% and the “AUC0–24 ratio 4-OH-Tam to tamoxifen” value [1, 9] was 0.0109 (0.0053–0.014).

With `CC/C(=C(\c1ccc(O)cc1)c1ccc(OCCNC)cc1)c1ccccc1` [Endoxifen, 4-hydroxy-N-desmethyl-tamoxifen] the “AUC0–24 ratio endoxifen to ND-Tam, ratio of weak to potent CYP2D6-inhibiting SSRI” value [1, 3] was 3.33 (1.56–5.37), the AUC(0-t) [1, 4] was 0.0992 µM·h and the Cmax [1, 5] was 5.46 nM. The “Fold higher endoxifen exposure after the switch, single patient” value ([1]; one person using 40 mg tamoxifen (dose corrected to 20 mg)) was 2.9 fold, the C trough [1, 6] was 5.20 (3.48–10.6) nM and the “C max, ratio of weak to potent CYP2D6-inhibiting SSRI” value [1, 7] was 2.96 (1.50–7.44). For the same compound, the “C trough, ratio of weak to potent CYP2D6-inhibiting SSRI” value [1, 7] was 2.80 (1.02–6.33), the “C max, ratio of weak to potent CYP2D6-inhibiting SSRI” value ([1]; plasma, after versus before the switch, median (range), listed as endoxifen) was ~ 3 and the “AUC0–24 ratio endoxifen to ND-Tam” value [1, 9] was 0.0113 (0.0065–0.014). For the same compound, the “AUC0–24 ratio endoxifen to tamoxifen” value [1, 9] was 0.0213 (0.0057–0.029).

With `CC/C(=C(\c1ccccc1)c1ccc(OCCNC)cc1)c1ccccc1` [ND-Tam, N-desmethyltamoxifen] the C trough [1, 6] was 446 (306–807) nM, the “AUC0–24, ratio of weak to potent CYP2D6-inhibiting SSRI” value [1, 7] was 1.09 (0.75–1.27) and the “C max, ratio of weak to potent CYP2D6-inhibiting SSRI” value [1, 7] was 1.09 (0.77–1.75). For the same compound, the “C trough, ratio of weak to potent CYP2D6-inhibiting SSRI” value [1, 7] was 0.97 (0.76–1.37), the “AUC0–24” value [1, 10] was 10,149 (7744–20,107) nM·h and the Cmax [1, 10] was 528 nM.

In the case of `CC/C(=C(\c1ccccc1)c1ccc(OCCN(C)C)cc1)c1ccccc1` [Tamoxifen, reference compound], the AUC(0-t) [1, 4] is reported as 6.42 µM·h, the Cmax [1, 5] is reported as 369 nM and the C trough [1, 6] is reported as 278 (128–557) nM.

With `CN(C)CCC[C@@]1(c2ccc(F)cc2)OCc2cc(C#N)ccc21` [escitalopram, S-citalopram] the Hot flashes ([2]; tamoxifen-treated women, during co-administration) was “hot flashes were reported particularly during escitalopram co-administration”, the “Safety of switching from paroxetine/fluoxetine to escitalopram (antidepressant-related adverse events, psychiatric relapse)” value ([2]; tamoxifen-treated women, escitalopram 10–20 mg/day, cross-tapering) was “safe and feasible; also recorded: No antidepressant-related adverse events or psychiatric relapse were noted” and the Discontinuation of treatment ([2]; ten tamoxifen-treated women) was “None of the ten women had to discontinue”.
